# Test results taken from patent US20250276955A1, “CORONAVIRUS MAIN PROTEASE INHIBITORS AND METHODS USING SAME” (Baylor College of Medicine, priority 2021, published 2025).
# Columns and labels:
# [1] = Metabolic stability in mouse liver microsomes; assay type: in vitro ADME
# In short: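 Mouse or human liver microsomal incubations sampled in duplicate at 0, 30 and 60 min, quenched with equal volume ice-cold methanol. Supernatant analysed by UHPLC-Orbitrap MS, C18 column at 40° C, positive ESI, m/z 80–1,200.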
# [2] = system: SARS-COV-2 (USA_WA1/2020 isolate) in VERO E6 cells; assay: Real-Time Cell Analysis (RTCA) assay of SARS-COV-2 replication; assay type: cell-based; details: VERO E6 cells, 75 h
# HepG2 cells = assay: HepG2 cell uptake assay; assay type: in vitro ADME; details: 10 μM, 2 hours
# Protocol: The HepG2 cells maintained in DMEM (containing 1 g/L glucose, 10% fetal bovine serum and 1% penicillin/streptomycin) were seeded in a 12-well plate (a final density of 5×10^5/well) for cell uptake assay and 96-well plate for cytotoxicity assay (a final density of 5×10^4/well). The plate was incubated at 37° C. for 24 h.
# The cells in 12-well plate were treated with CDD-1713 or CDD-1976 (final concentration: 10 μM). The plate was incubated at 37° C. for another 2 hr. The medium in the plate was decanted and the cells were rinsed with 1 mL of 1×DPBS for three times. 0.5 mL of 0.25% Trypsin was added into each well and incubated for 3.5 min (at 37° C.). 1 mL of complete medium was added into each well to quench the reaction. After spinning at 350×g for 5 min, the cell pellet was reconstituted in MeOH/H2O (v/v 1/1) and CDD-1713 or CDD-1976 was extracted from 100 μL of the resulting mixture with 100 μL of ice-cold methanol. The mixtures were centrifuged at rcf 15,000 for 15 min. Three μL of the supernatant was analyzed by UHPLC-Q Exactive Orbitrap MS (Thermo Fisher Scientific, USA) equipped with 50 mm×4.6 mm column (XDB C-18, Agilent Technologies, USA). The column temperature was set at 40° C. Ultra-pure nitrogen was applied as the sheath (45 arbitrary unit), auxiliary (10 arbitrary unit), sweep (1.0 arbitrary unit) and the collision gas. […]
# 293T = 293T relative cell viability; details: day 3, 10 μM
# HOVPro-Gi.1 = target: T1, HOVPro-Gi.1 (Norovirus, UniProt Q83883); assay: Thermal shift, HOVPro-Gi.1; assay type: binding
# T1 construct: HOVPro-Gi.1
# human thrombin = target: T2, human thrombin (Homo sapiens, UniProt P00734); assay: Thrombin fluorescence assay; assay type: biochemical; details: fluorescence assay
# T2 construct: purchased Sigma-Aldrich MAK243
# T1 sequence (Q83883 1101-1281): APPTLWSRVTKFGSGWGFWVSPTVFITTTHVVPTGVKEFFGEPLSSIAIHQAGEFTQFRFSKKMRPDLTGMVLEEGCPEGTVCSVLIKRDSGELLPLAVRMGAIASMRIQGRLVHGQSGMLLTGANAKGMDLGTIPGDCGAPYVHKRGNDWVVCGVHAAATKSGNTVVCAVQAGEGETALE
smiles,measurement,setting,value
"COc1cc(-c2cccc3[nH]ncc23)cc(C=O)c1OCC(=O)N(C)C [CDD-1713, 2-(2-formyl-4-(1H-indazol-4-yl)-6-methoxyphenoxy)-N,N-dimethylacetamide]",MLM t1/2,[1]; Table 4,8.4 min
same,microsomal CLint at 2 μM,"[1]; mouse, liver microsomes",147 µL/min/mg
same,metabolic stability in mouse liver microsomes (in words),"[1]; mouse, microsomes",metabolically labile
same,IC50,"[2]; Severe acute respiratory syndrome coronavirus 2, Vero C1008, read-out: IC50, inhibition of SARS-COV-2 induced cell death (RTCA)",5.19 µM
same,prevention of SARS-COV-2 induced cell death (in words),[2],reduced cell death in a dose-dependent manner
same,cell permeability in HepG2 uptake assay (in words),HepG2 cells,moderate cell permeability
same,293T day 3 relative cell viability (% inhibition at 10 μM),293T,None
same,ΔTm of HOVPro-Gi.1 at 50 μM compound conc.,HOVPro-Gi.1,−0.09 °C
same,Thrombin inhibition,human thrombin,None
same,thrombin inhibition (in words),human thrombin,No inhibition
